Data from patent US8735406B2, “8-oxodihydropurine derivative” (Dainippon Sumitomo Pharma Co., Ltd., priority 2009, dated 2014).
pIC50: −log10 of the molar value. Where two headings read alike, the source gives them in different places.

Molecular target: T1, FAAH (Rattus norvegicus, UniProt P97612)
T1 construct: Preparation of Rat Brain Membranes Preparations (FAAH Enzyme Solution); from tissue; host or cells: rat cerebrum (brain membrane preparation)
T1 sequence (P97612 1-579): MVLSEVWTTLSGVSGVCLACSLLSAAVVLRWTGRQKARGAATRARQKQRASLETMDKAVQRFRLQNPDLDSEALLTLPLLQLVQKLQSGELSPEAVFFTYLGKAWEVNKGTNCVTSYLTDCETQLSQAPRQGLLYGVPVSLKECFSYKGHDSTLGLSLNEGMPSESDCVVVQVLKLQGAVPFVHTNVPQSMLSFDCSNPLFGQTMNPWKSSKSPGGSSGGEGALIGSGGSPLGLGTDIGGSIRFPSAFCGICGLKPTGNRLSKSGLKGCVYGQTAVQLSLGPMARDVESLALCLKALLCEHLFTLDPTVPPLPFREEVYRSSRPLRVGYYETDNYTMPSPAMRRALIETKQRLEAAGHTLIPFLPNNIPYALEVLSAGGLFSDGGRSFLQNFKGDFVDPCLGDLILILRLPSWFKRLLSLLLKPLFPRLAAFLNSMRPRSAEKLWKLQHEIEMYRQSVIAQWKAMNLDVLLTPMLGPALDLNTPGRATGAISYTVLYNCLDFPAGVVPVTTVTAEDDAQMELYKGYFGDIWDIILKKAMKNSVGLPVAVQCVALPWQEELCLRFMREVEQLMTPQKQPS
Assay: Determination of FAAH inhibitory activity in rat (rat brain membrane preparations, [3H]-anandamide hydrolysis)
Assay type: biochemical
Settings: rat brain membrane preparations; for pIC50: read-out: FAAH Inhibition IC50
Method in brief: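 Rat cerebrum membranes (100 μg/mL protein) preincubated 10 min at 37 °C with compound (1% DMSO) in pH 7.6 Tris buffer with 1.5% BSA. Substrate 2 nM [3H]-anandamide plus 2 μM anandamide added for 10 min at 37 °C. [3H]-ethanolamine in the aqueous phase after chloroform/methanol extraction was scintillation counted; IC50 over 0.1 nM–1 μM.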

[1] = 100 nM test substance, read-out: FAAH Inhibition, Inhibition Rate at 100 nM
[2] = at 100 nM, read-out: FAAH Inhibition Inhibition Rate at 100 nM

inhibition at 0.1 µM [1]	pIC50 (test substance 0.1 nM to 1 μM)	FAAH Inhibition, Inhibition Rate at 100 nM (100 nM test substance, 0.1 µM)	inhibition at 0.1 µM [2]	pIC50	Structure (SMILES)
95%	7.89				Cc1cc(C)c(CCc2ncc3c(n2)n(C(=O)N(C)C)c(=O)n3C)c(C)c1 [compound 511]
102%	8.00				Cc1cc(C)cc(CCc2ncc3c(n2)n(C(=O)N(C)C)c(=O)n3C)c1 [compound 514]
100%	8.00				CCc1ccccc1CCc1ncc2c(n1)n(C(=O)N(C)C)c(=O)n2C [compound 515]
100%	8.00				CCc1cccc(CCc2ncc3c(n2)n(C(=O)N(C)C)c(=O)n3C)c1 [compound 516]
98%	8.00				CN(C)C(=O)n1c(=O)n(C)c2cnc(CCc3cccc(C4CC4)c3)nc21 [compound 517]
107%	8.05				CCCc1cccc(CCc2ncc3c(n2)n(C(=O)N(C)C)c(=O)n3C)c1 [compound 518]
84%	8.22				CN(C)C(=O)n1c(=O)n(C)c2cnc(CCc3cccc(OCC4CC4)c3)nc21 [compound 519]
96%	8.40				CN(C)C(=O)n1c(=O)n(C)c2cnc(CCc3cccc(Cl)c3)nc21 [compound 520]
85%	7.89				CN(C)C(=O)n1c(=O)n(C)c2cnc(CCc3ccc(C4CC4)cc3)nc21 [compound 521]
80%	7.03				CN(C)C(=O)n1c(=O)n(C)c2cnc(CCc3ccc(C4CC4)c(F)c3)nc21 [compound 524]
95%	7.55				CN(C)C(=O)n1c(=O)n(C)c2cnc(CCc3ccc(F)c(C4CC4)c3)nc21 [compound 527]
	7.26	72%			CN(C)C(=O)n1c(=O)n(C)c2cnc(CCc3cc(F)cc(F)c3)nc21 [compound 528]
80%	7.52				CN(C)C(=O)n1c(=O)n(C)c2cnc(CCc3ccc(OC4CCC4)cc3)nc21 [compound 531]
96%	7.89				CN(C)C(=O)n1c(=O)n(C)c2cnc(CCc3ccc(OC4CCCC4)cc3)nc21 [compound 532]
47%	6.88				CCOc1cccc(CCc2ncc3c(n2)n(C(=O)N(C)C)c(=O)n3C)c1 [compound 534]
61%	7.12				CCCOc1cccc(CCc2ncc3c(n2)n(C(=O)N(C)C)c(=O)n3C)c1 [compound 535]
41%	6.88				CC(C)Oc1cccc(CCc2ncc3c(n2)n(C(=O)N(C)C)c(=O)n3C)c1 [compound 536]
41%	6.82				CN(C)C(=O)n1c(=O)n(C)c2cnc(CCc3cccc(C(F)F)c3)nc21 [compound 537]
92%	7.77				CN(C)C(=O)n1c(=O)n(C)c2cnc(CCc3cccc(C(F)(F)F)c3)nc21 [compound 539]
100%	8.00				CN(C)C(=O)n1c(=O)n(C)c2cnc(CCc3ccccc3C(F)(F)F)nc21 [compound 542]

inhibition at 0.1 µM [1]	pIC50 (test substance 0.1 nM to 1 μM)	FAAH Inhibition, Inhibition Rate at 100 nM (100 nM test substance, 0.1 µM)	inhibition at 0.1 µM [2]	pIC50	Structure (SMILES)
70%	7.17				COc1cccc(CCc2ncc3c(n2)n(C(=O)N(C)C)c(=O)n3C)c1 [compound 543]
122%	7.96				COc1ccc(CCc2ncc3c(n2)n(C(=O)N(C)C)c(=O)n3C)cc1 [compound 544]
86%	7.55				CN(C)C(=O)n1c(=O)n(C)c2cnc(CCc3ccccc3C(F)F)nc21 [compound 546]
79%	7.57				CN(C)C(=O)n1c(=O)n(C)c2cnc(CCc3cccc(OC(F)F)c3)nc21 [compound 548]
77%	7.66				CN(C)C(=O)n1c(=O)n(C)c2cnc(CCc3ccccc3OC(F)(F)F)nc21 [compound 549]
87%	7.70				CN(C)C(=O)n1c(=O)n(C)c2cnc(CCc3cccc(F)c3F)nc21 [compound 550]
40%	6.98				CN(C)C(=O)n1c(=O)n(C)c2cnc(CCc3c(F)cccc3F)nc21 [compound 551]
43%					CCN(C)C(=O)n1c(=O)n(C)c2cnc(CCc3ccccc3F)nc21 [compound 554]
48%	6.97				CCN(C)C(=O)n1c(=O)n(C)c2cnc(CCc3ccc(F)cc3)nc21 [compound 555]
78%	7.36				CCN(C)C(=O)n1c(=O)n(C)c2cnc(CCc3cccc(C)c3)nc21 [compound 556]
66%	7.17				CCN(C)C(=O)n1c(=O)n(C)c2cnc(CCc3cccc(OC)c3)nc21 [compound 557]
83%	7.64				CCN(C)C(=O)n1c(=O)n(C)c2cnc(CCc3cccc(OC(F)(F)F)c3)nc21 [compound 558]
97%	8.00				Cc1ccc(CCc2ncc3c(n2)n(C(=O)N2CCC2)c(=O)n3C)cc1 [compound 559]
91%	7.85				Cc1cccc(CCc2ncc3c(n2)n(C(=O)N2CCC2)c(=O)n3C)c1 [compound 560]
99%	8.00				CCc1ccc(CCc2ncc3c(n2)n(C(=O)N2CCC2)c(=O)n3C)cc1 [compound 561]
101%	8.00				CCCc1ccc(CCc2ncc3c(n2)n(C(=O)N2CCC2)c(=O)n3C)cc1 [compound 562]
100%	8.15				CC(C)c1ccc(CCc2ncc3c(n2)n(C(=O)N2CCC2)c(=O)n3C)cc1 [compound 563]
98%	8.05				CCCOc1ccc(CCc2ncc3c(n2)n(C(=O)N2CCC2)c(=O)n3C)cc1 [compound 564]
99%	8.00				Cc1ccc(CCc2ncc3c(n2)n(C(=O)N2CCC2)c(=O)n3C)cc1C [compound 565]
96%	8.00				Cc1cc(C)c(CCc2ncc3c(n2)n(C(=O)N2CCC2)c(=O)n3C)c(C)c1 [compound 566]

inhibition at 0.1 µM [1]	pIC50 (test substance 0.1 nM to 1 μM)	FAAH Inhibition, Inhibition Rate at 100 nM (100 nM test substance, 0.1 µM)	inhibition at 0.1 µM [2]	pIC50	Structure (SMILES)
83%	7.00				Cn1c(=O)n(C(=O)N2CCC2)c2nc(CCc3cccc(C4CC4)c3)ncc21 [compound 572]
99%	7.80				Cn1c(=O)n(C(=O)N2CCC2)c2nc(CCc3ccc(C4CC4)cc3)ncc21 [compound 573]
102%	8.00				Cn1c(=O)n(C(=O)N2CCC2)c2nc(CCc3ccc(Cl)cc3)ncc21 [compound 575]
57%	7.12				Cc1ccccc1CCc1ncc2c(n1)n(C(=O)N1CCC1)c(=O)n2C [compound 591]
84%	7.68				Cn1c(=O)n(C(=O)N2CCC2)c2nc(CCc3cccc(C(F)F)c3)ncc21 [compound 594]
92%	8.00				Cn1c(=O)n(C(=O)N2CCC2)c2nc(CCc3ccc(C(F)(F)F)cc3)ncc21 [compound 597]
			92%	7.82	CCOc1cccc(CCc2ncc3c(n2)n(C(=O)N2CCC2)c(=O)n3C)c1 [compound 604]
			108%	8.40	Cn1c(=O)n(C(=O)N2CCC2)c2nc(CCc3ccc(OC(F)(F)F)cc3)ncc21 [compound 609]
			78%	8.00	Cn1c(=O)n(C(=O)N2CC(c3ccc(F)cc3)C2)c2cnc(C3CC3)nc21 [compound 621]
			116%	9.00	Cn1c(=O)n(C(=O)N2CC(c3cccc(F)c3)C2)c2cnc(C3CC3)nc21 [compound 622]
			87%	8.52	Cn1c(=O)n(C(=O)N2CC(c3ccccc3)C2)c2cnc(C3CC3)nc21 [compound 623]
			97%	7.74	CCCc1ncc2c(n1)n(C)c(=O)n2C(=O)N1CC(c2ccc(F)cc2)C1 [compound 624]
			104%	8.15	CCCc1ncc2c(n1)n(C)c(=O)n2C(=O)N1CC(c2cccc(F)c2)C1 [compound 625]
			128%	8.40	CCCc1ncc2c(n1)n(C)c(=O)n2C(=O)N1CC(c2ccccc2)C1 [compound 626]
			107%	8.40	CCc1ncc2c(n1)n(C)c(=O)n2C(=O)N1CC(c2ccccc2)C1 [compound 627]
			90%	8.00	CCc1ncc2c(n1)n(C)c(=O)n2C(=O)N1CC(c2ccc(F)cc2)C1 [compound 628]
			76%	7.57	CN(C)C(=O)n1c(=O)n(C)c2cnc(CCOc3cccc(F)c3)nc21 [compound 639]
			95%	7.92	CN(C)C(=O)n1c(=O)n(C)c2cnc(CCOc3ccc(Cl)cc3)nc21 [compound 640]
